From US11213522B2, “Autoimmune-induced glutamatergic receptor dysfunction methods and treatments” (SARAH HERZOG MEMORIAL HOSPITAL EZRAT NASHIM ASSOCIATION, priority 2013, dated 2022)

Experiments:
[1] = system: patient positive for anti-NR1 NMDAR antibodies; assay: Side effects and tolerability (UKU Side Effect Rating Scale, medical work-up), D-serine clinical trial; assay type: in vivo, human; conditions: throughout the study; 1500 to 4000 mg/day over 6 weeks, adjuvant
Experimental: (§1) The trial consisted of two periods, starting with a 2 week lead-in/stabilization period (−2-0) following which the patient was entered in the second period of the study which consisted of a 6 week (0-6), open-label, fixed dose therapy phase. During this phase, the patient received adjuvant treatment with DSR, whose dose was increased from 1500 mg/day (week 1) to 2000 mg/day (weeks 2 and 3) to 3000 mg/day (weeks 4 and 5) and to 4000 mg/day (week 6). The doses of the ongoing medication received by the patient remained fixed throughout the study and no changes in medication were performed.
(§2) The patient underwent prior to entering the study and at study weeks 3 and 6 a medical work-up including complete medical history, and routine clinical blood work, including blood count+differential, lipids, and glucose levels, kidney, thyroid, and liver function parameters, urinalysis, and blood pressure measurements. Abdominal ultrasound was performed prior to study entry and electroencephalogram (EEG) and brain magnetic resonance imaging (MR1) were obtained pre- and post-DSR administration.
The assessment procedures used in the study included clinical and neurocognitive examinations. Motor and psychiatric symptoms as well as side-effects were rated biweekly throughout the study. […] In conjunction with UKU ratings, patient's vital signs and body weight were monitored throughout the study.

[2] = system: patient positive for anti-NR1 NMDAR antibodies; assay: Test of Attentional Vigilance (TOAV); assay type: in vivo, human; conditions: post-6 weeks D-serine
Experimental: as §1
(§3) In addition, cognitive performance was assessed pre- and post DSR treatment. For this purpose, a 1.5-hour neurocognitive assessment battery (nine computerized and two paper/pencil tests) was employed that measures accuracy and speed of performance in major cognition domains, including attention/vigilance, planning, short-term and working memory, decision making, abstraction and mental flexibility. All the tests were formatted like games and puzzles, and were administered to the patient as part of the comprehensive neuropsychiatric assessment at baseline and the end of study. The neurocognitive battery included the 1) Test of Attentional Vigilance (TOAV, (Forbes, 1998, Journal of Clinical Psychology 54:461-476; Greenberg, 1993, Journal of Child Psychology and Psychiatry 34: 1019-30)); 2) Tower of London (TOL, (Shailice, 1982, Specific impairments of planning Philosophical Transactions of the Royal Society of London. Series B, Biological Sciences 298:199-209); 3-4) Digit Span Test (DST, forward and backward (Wechsler 1997, The Wechsler adult intelligence scale-III. San Antonio, Tex.: Psychological Corporation; Kaplan 1991, The WAIS-R as a neuropsychological instrument. San Antonio, Tex.: The Psychological Corporation; Lamar et al., 2007, Neuropsychologia 45:245-54; Lamar et al., 2008, Neuropsychologia 46:2597-601)); 5-6) Corsi Block Tapping Test (CBTT, forward and backward, (Corsi, 1972, Dissertation Abstracts International. […]

[3] = system: patient positive for anti-NR1 NMDAR antibodies; assay: Tower of London (ToL); assay type: in vivo, human; conditions: post-6 weeks D-serine
Experimental: as §1
as §3, with “International. 34:819B; Kessels et al., 2000, Applied Neuropsychology 7:252-58, Kessels et al., 2008, Assessment 15:426-34)); 7) Flanker Task (Erikson and Eriksen, 1974; Perception & Psychophysics 25: 249-63, Stins et. al., 2007, Advances in Cognitive Psychology 3:389-96); 8) Time Wall (Perez et al., 1987, Unified Tri-services cognitive performance assessment battery: review and methodology; DTIC Document ADA181697, http://www.dtic.mil/dtic/tr/fulltext/u2/a81697.pdf); and Wisconsin Card Sort Test (WCST, (Berg, 1948, J Gen Psychol39:15-22; Nelson, 1976, Cortex 12:313-24)).” for “International.”

[4] = system: patient positive for anti-NR1 NMDAR antibodies; assay: Electroencephalogram (EEG) pre- and post-DSR administration; assay type: in vivo, human
Experimental: as §1, §2

[5] = system: Rodent neuron cell cultures treated with anti-NMDAR antibodies; assay: Example 3: NMDAR localization in neuron cultures treated with anti-NMDAR antibodies; assay type: cell-based; conditions: D-Serine 50-200 uM; histological measurements
Experimental: Rodent neuron cell cultures are treated with anti-NMDAR antibodies as described in Hughes E G et al., J Neurosci 2012 30(17):5866-75. […] The determination of receptors localization and other relevant measures is based on histological measurements.
Immunohistochemical methods will be applied to document (a) localization of NMDAR and NR1 and NR2 subunits; (b) loss of oligodendrocytes; (c) changes in astrocytes (S100beta) and microglia (cd11b), (d) expression of neurotrophic factors: brain derived neurotrophic factor (BDNF), nerve growth factor (NGF) and ciliary neurotrophic factor (CNTF); (e) markers of neurogenesis—doublecortin (17) and apoptosis—caspase3 (9). Quantification of histological measurements is based on images in several cortical subregions, striatum, […], hippocampus, and cerebellum.

[6] = system: patient positive for anti-NR1 NMDAR antibodies; assay: Neurocognitive assessment battery (overall); assay type: in vivo, human
Experimental: as §1
In addition, cognitive performance was assessed pre- and post DSR treatment. For this purpose, a 1.5-hour neurocognitive assessment battery (nine computerized and two paper/pencil tests) was employed that measures accuracy and speed of performance in major cognition domains, including attention/vigilance, planning, short-term and working memory, decision making, abstraction and mental flexibility. All the tests were formatted like games and puzzles, and were administered to the patient as part of the comprehensive neuropsychiatric assessment at baseline and the end of study. […]

[7] = doses of ≤4 g/day; cited from earlier work

With `N[C@H](CO)C(=O)O` [D-serine] the Side effects [1] was “no side effects were registered”, the “Tolerability of DSR treatment” value [1] was “well tolerated” and the “TOAV Commission errors” value ([2]; pre-treatment 1) was 0. For the same compound, the “TOAV Omission errors” value ([2]; pre-treatment 1) was 2, the “TOAV Response time, mean ± SD” value ([2]; pre-treatment 562 ± 103) was 523 ± 93 milliseconds and the “ToL correctly solved trials, total (0-12)” value ([3]; pre-treatment 6) was 4. The “ToL preplanning time, mean ± SD” value ([3]; pre-treatment 15.48 ± 4.43) was 11.24 ± 4.73 s, the “ToL movement execution time, mean ± SD” value ([3]; pre-treatment 22.57 ± 11.998) was 19.30 ± 15.42 s and the “ToL total time (0-720 seconds)” value ([3]; pre-treatment 456.582) was 366.415 s. For the same compound, the “Current latency of EDB over the right frontal area” value ([4]; following DSR treatment, t=2.686, df=113, p=0.0083, F8 channel) was “significant reduction”, the “EEG extreme delta brush (EDB) pattern” value ([4]; post- vs pre-DSR administration (six weeks)) was “attenuation of the EDB pattern” and the “EEG coherence between electrodes” value ([4]; post- vs pre-six weeks of D-serine, across all frequency bands) was “Distinct new patterns of EEG coherence”. The “Effect on NMDAR intracellular localization” value [5] was “reversing receptor intracellular localization”, the “Completion of DST, TMT and WCST tasks” value ([6]; post-DSR treatment, not comprehended/performed at baseline) was “successfully completed” and the “Effect upon cognitive performance (test battery)” value ([6]; post-DSR vs baseline, improvements in working memory, abstraction and mental flexibility) was “favorable effect”. For the same compound, the Adverse events [7] was “No significant adverse events”.
